# No end group written: not given here.
# B1: Peptide … (SEQ ID NO:14) (peptide)
# peptide: APPCARHLGELVWCT
# modifications: not fully specified; cysteine pairing not given here
# B2: Peptide … (SEQ ID NO:13) (peptide)
# peptide: APPCAWHLGELVWCT
# modifications: not fully specified; cysteine pairing not given here
# B3: Peptide … (SEQ ID NO:3) (peptide)
# peptide: DCAFHLGELVWCT
# B4: Peptide … (SEQ ID NO:15) (peptide)
# peptide: APPCAFHLGELVWCT
# modifications: not fully specified; cysteine pairing not given here
# B5: Peptide … (SEQ ID NO:16) (peptide)
# peptide: APPDCAWHLGELVWCT
# Experiments:
# FcγIIb = experiment: Reverse ELISA: inhibition of PAP immune complex binding to FcγIIb coated plates; conditions: PAP pre-incubated with peptide one hour; lower OD = more inhibition; positive control 1.394
# Text: (§1) For this reason, a “reverse ELISA” technique was used to assess binding of the Fc region to ligands that bind to immune complexed IgG Fc. In a reverse ELISA, the enzyme (e.g., HRP) is not covalently conjugated to the Fc portion of the secondary antibody. Rather, a preformed immune complex of peroxidase-rabbit (or mouse) anti-peroxidase IgG (“PAP” complex) is used. […] In these experiments, an Fe CH2-CH3 cleft binding ligand (e.g., purified human C1q) was bound to microwell plates. In the absence of competitor, PAP complexes bound to the immobilized ligand and the reaction between HRP and its substrate produced a signal. This signal was reduced by polypeptides and compounds provided herein that inhibited PAP binding to the immobilized ligand.
# (§2) Once the reverse ELISA protocol was established using the C1q assay, the assay was redesigned using FcγIIa, FcγIIb, and FcγIII in place of C1q. Highly purified FcγIIa, FcγIIb and FcγIII were immunoadsorbed onto plastic microwells. After optimizing the FcγR reverse ELISA system, simple competitive inhibition experiments using polypeptides provided herein were conducted to investigate their ability to inhibit binding of immune complexes to purified FcγR.
# (§3) Falcon microtiter plates were coated with 1:10 dilutions of highly purified FcγIIa, FcγIIb and FcγIII and incubated for 24 hours. The plates were washed and then blocked with 5×BSA blocking solution (Alpha Diagnostic International, San Antonio, Tex.) for 24 hours. PAP immune complexes were formed as described above. PAP (100 μl) were pre-incubated with 100 μl of peptide for one hour. PAP/peptide mixtures were added to the FcγR coated plates and incubated for one hour. After washing, plates were incubated with ABTS substrate for 15 minutes and read at 405 nm.
# FcγIIa = experiment: Reverse ELISA: inhibition of PAP immune complex binding to FcγIIa coated plates; conditions: PAP pre-incubated with peptide one hour; lower OD = more inhibition; positive control 1.599
# Text: as §1, §2, §3
# FcR = experiment: FcγR reverse ELISA, overall statement on FcR binding to PAP; conditions: ranking among peptides of Table 2
# Experimental: as §2, §3
# human wtSOD1 = experiment: Reverse ELISA: inhibition of immune complexed IgG (PAP) binding to wt SOD1 coated plates; conditions: for wt SOD1 (OD read at 405 nm): PAP pre-incubated with peptide one hour, 60 min on plates, positive control 2.900; for inhibition of wt SOD1 binding to PAP (in words): ranking among peptides of Table 3
# Experimental: (§4) PAP complexes were prepared as described in Example 2. PAP (100 μl) were pre-incubated with 100 μl of peptide for one hour, and control (200 μl of PAP) also was incubated for one hour. 100 μl of either PAP or PAP/peptide was added to Falcon microtiter plates that had been coated for 24 hours with either 0.8 μg/ml human wtSOD1 (Sigma-Aldrich) or apo (non Cu, Zn containing) monomeric mutant SOD1 C57S (mSOD1C57S). The PAP or peptide/PAP mixtures (100 μl) were added after one hour to either wt SOD1 or mSOD1C57S coated plates for 60 minutes. After washing, plates were incubated with ATBS for 15 minutes and read at 405 nm.
# [1] = system: apo monomeric mutant SOD1 C57S (mSOD1C57S); experiment: Reverse ELISA: inhibition of immune complexed IgG (PAP) binding to mSOD1C57S coated plates; conditions: for mSOD1C57S (OD read at 405 nm): PAP pre-incubated with peptide one hour, 60 min on plates, positive control […]; for inhibition of mSOD1C57S binding to PAP (in words): ranking among peptides of Table 3
# Experimental: as §4
# IgG Fc = experiment: Alanine substitution, binding of SEQ ID NO:16 to IgG Fc; conditions: alanine substitution of IgG Fc Asn-434, His-435, or Tyr-436
# FcγIII = experiment: Reverse ELISA: inhibition of PAP immune complex binding to FcγIII coated plates; conditions: PAP pre-incubated with peptide one hour; lower OD = more inhibition; positive control 1.588
# Text: as §1, §2, §3
# human C1q = experiment: Reverse ELISA: inhibition of PAP immune complex binding to C1q coated plates; conditions: for OD 405 nm: PAP pre-incubated with peptide or C1q one hour, 30 min on C1q plates, lower OD = more inhibition, positive control 2.355; for inhibition of C1q binding (in words): ranking among peptides of Table 1
# Text: as §1
# PAP complexes were formed mixing 2 μl of rabbit anti-peroxidase (Sigma Chemicals, St. Louis, Mo.) with 50 μl of peroxidase (Sigma-Aldrich, St. Louis, Mo.) in 1 ml distilled water. PAP (100 μl) were pre-incubated with 100 μl of peptide for one hour, 100 μl were pre-incubated with 100 μl of peptide or human C1q (Quidel Corp., San Diego, Calif.) for one hour. The C1q/PAP and peptide/PAP mixtures (100 μl) were incubated with C1q coated plates for 30 minutes. After washing, plates were incubated with ATBS (Quidel Corp.) for 15 minutes and read at 405 nm.
# FcγIIb (highly purified) = experiment: reverse ELISA: PAP without competitor on FcγIIb-coated plate
# [2] = target: human C1q (Quidel Corp.) (human) (UniProt P02745); experiment: reverse ELISA: PAP without competitor on C1q-coated plate
# FcγIIa (highly purified) = experiment: reverse ELISA: PAP without competitor on FcγIIa-coated plate
# FcγIII (highly purified) = experiment: reverse ELISA: PAP without competitor on FcγIII-coated plate
# [3] = target: preformed immune complex of peroxidase-rabbit anti-peroxidase IgG (PAP complex) (rabbit; horseradish) (UniProt P00433); experiment: competition reverse ELISA: PAP pre-incubated with peptide, residual PAP binding to FcγIII-coated plate (competitor: immobilized FcγIII)
# [4] = target: preformed immune complex of peroxidase-rabbit anti-peroxidase IgG (PAP complex) (rabbit; horseradish) (UniProt P00433); experiment: competition reverse ELISA: PAP pre-incubated with peptide, residual PAP binding to FcγIIb-coated plate (competitor: immobilized FcγIIb)
# [5] = target: preformed immune complex of peroxidase-rabbit anti-peroxidase IgG (PAP complex) (rabbit; horseradish) (UniProt P00433); experiment: competition reverse ELISA: PAP pre-incubated with peptide, residual PAP binding to FcγIIa-coated plate (competitor: immobilized FcγIIa)
# [6] = target: preformed immune complex of peroxidase-rabbit anti-peroxidase IgG (PAP complex) (rabbit; horseradish) (UniProt P00433); experiment: competition reverse ELISA: PAP pre-incubated with peptide, residual PAP binding to C1q-coated plate (competitor: immobilized C1q)
# [7] = target: preformed immune complex of peroxidase-rabbit anti-peroxidase IgG (PAP complex) (rabbit; horseradish) (UniProt P00433); experiment: competition reverse ELISA: PAP pre-incubated with peptide, residual PAP binding to wt SOD1-coated plate (competitor: immobilized wt SOD1)
# [8] = target: preformed immune complex of peroxidase-rabbit anti-peroxidase IgG (PAP complex) (rabbit; horseradish) (UniProt P00433); experiment: competition reverse ELISA: PAP pre-incubated with peptide, residual PAP binding to mSOD1C57S-coated plate (competitor: immobilized mSOD1C57S)
# Chain of preformed immune complex of peroxidase-rabbit anti-peroxidase IgG (PAP complex) (rabbit; horseradish) (P00433 31-338, one chain of several): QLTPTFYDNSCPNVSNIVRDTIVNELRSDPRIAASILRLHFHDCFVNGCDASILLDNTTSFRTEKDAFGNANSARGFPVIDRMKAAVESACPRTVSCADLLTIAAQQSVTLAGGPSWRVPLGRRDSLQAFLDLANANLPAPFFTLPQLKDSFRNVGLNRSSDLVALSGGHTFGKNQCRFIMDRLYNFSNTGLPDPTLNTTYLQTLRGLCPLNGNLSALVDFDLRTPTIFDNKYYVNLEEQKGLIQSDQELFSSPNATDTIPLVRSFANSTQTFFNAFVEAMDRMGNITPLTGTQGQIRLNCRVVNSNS
# Chain of FcγIIa (highly purified) (P12318 34-317): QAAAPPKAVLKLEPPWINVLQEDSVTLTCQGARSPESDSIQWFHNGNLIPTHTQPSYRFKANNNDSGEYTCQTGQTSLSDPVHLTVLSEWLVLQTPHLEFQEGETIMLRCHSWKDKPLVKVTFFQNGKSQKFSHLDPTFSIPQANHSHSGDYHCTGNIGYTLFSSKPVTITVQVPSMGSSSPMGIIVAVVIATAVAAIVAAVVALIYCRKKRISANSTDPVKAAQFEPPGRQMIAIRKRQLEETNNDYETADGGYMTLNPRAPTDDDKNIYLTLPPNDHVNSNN
# Chain of human C1q (Quidel Corp.) (human) (P02745 23-245 limits assumed, chain 1 of 3): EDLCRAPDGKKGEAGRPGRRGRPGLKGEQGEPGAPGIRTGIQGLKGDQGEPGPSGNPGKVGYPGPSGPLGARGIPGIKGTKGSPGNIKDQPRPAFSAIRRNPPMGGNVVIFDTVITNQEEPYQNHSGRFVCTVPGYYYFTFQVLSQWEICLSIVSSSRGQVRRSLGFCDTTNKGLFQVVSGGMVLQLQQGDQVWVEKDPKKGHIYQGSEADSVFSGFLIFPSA
# Chain of human C1q (Quidel Corp.) (human) (P02746 28-253 limits assumed, chain 2 of 3, further chain): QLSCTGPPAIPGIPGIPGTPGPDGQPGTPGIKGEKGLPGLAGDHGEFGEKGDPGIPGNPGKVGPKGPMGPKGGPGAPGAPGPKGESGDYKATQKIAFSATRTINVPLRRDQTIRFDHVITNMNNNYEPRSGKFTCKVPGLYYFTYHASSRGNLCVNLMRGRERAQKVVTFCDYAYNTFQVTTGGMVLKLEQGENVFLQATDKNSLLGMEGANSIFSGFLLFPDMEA
# Chain of human C1q (Quidel Corp.) (human) (P02747 29-245 limits assumed, chain 3 of 3, further chain): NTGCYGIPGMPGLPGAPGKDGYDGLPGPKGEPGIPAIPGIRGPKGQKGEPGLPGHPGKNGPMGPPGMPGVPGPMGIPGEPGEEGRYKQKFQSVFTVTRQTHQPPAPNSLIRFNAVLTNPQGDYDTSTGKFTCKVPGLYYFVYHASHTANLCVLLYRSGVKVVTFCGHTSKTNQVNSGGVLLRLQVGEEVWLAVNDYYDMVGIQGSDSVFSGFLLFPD
# Chain of FcγIIb (highly purified) (P31994 43-310): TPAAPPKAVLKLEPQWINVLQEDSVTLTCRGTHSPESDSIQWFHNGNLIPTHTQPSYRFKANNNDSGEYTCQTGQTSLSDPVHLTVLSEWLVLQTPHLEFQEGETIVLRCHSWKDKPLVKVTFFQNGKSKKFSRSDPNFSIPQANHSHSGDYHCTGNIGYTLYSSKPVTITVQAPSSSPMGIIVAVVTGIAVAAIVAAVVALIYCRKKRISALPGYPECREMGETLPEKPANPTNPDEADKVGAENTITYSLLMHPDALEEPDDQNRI
Molecule,FcγIIb (OD read at 405 nm) (FcγIIb),FcγIIa (OD read at 405 nm) (FcγIIa),FcγIII (OD read at 405 nm) (FcγIII),OD 405 nm (human C1q),OD 405 nm [3],OD 405 nm [4],OD 405 nm [5],OD 405 nm [6],other results
Ala-Pro-Pro-Asp-Cys-Ala-Trp-His-Leu-Gly-Glu-Leu-Val-Trp-Cys-Thr (APPDCAWHLGELVWCT) [SEQ ID NO:16],0.496,0.509,0.670,0.389,,,,,"inhibition of FcR binding to PAP (in words) (FcR): greatest inhibition; wt SOD1 (OD read at 405 nm) (human wtSOD1): 0.277; inhibition of wt SOD1 binding to PAP (in words) (human wtSOD1): greatest inhibition; inhibition of wt SOD1 binding to PAP (in words) (human wtSOD1; listed as 16): best inhibition; mSOD1C57S (OD read at 405 nm) [1]: 0.226; inhibition of mSOD1C57S binding to PAP (in words) [1]: greatest inhibition; inhibition of mSOD1C57S binding to PAP (in words) ([1]; listed as 16): best inhibition; ΔΔG, disruption of binding (IgG Fc): ≥ 1.5 kcal/mol; inhibition of C1q binding (in words) (human C1q): greatest inhibition"
APPCARHLGELVWCT [SEQ ID NO:14],0.768,0.956,0.709,0.567,,,,,inhibition of C1q binding (in words) (human C1q): next best result
Asp-Cys-Ala-Trp-His-Leu-Gly-Glu-Leu-Val-Trp-Cys-Thr [SEQ ID NO:2],0.532,0.561,0.741,1.100,,,,,wt SOD1 (OD read at 405 nm) (human wtSOD1): 0.292; inhibition of wt SOD1 binding to PAP (in words) (human wtSOD1; listed as 2): inhibited; mSOD1C57S (OD read at 405 nm) [1]: 0.592; inhibition of mSOD1C57S binding to PAP (in words) ([1]; listed as 2): inhibited
APPCAFHLGELVWCT (not fully specified; cysteine pairing not given here) [SEQ ID NO:15],0.380,0.605,0.880,0.983,,,,,
preformed immune complex of peroxidase-rabbit anti-peroxidase IgG (PAP complex) (from UniProt P00433 31-338) (antibody),,,,,,,,,OD 405 nm (FcγIIb (highly purified)): 1.39 OD 405 nm; OD 405 nm [2]: 2.35 OD 405 nm; OD 405 nm (FcγIIa (highly purified)): 1.6 OD 405 nm; OD 405 nm (FcγIII (highly purified)): 1.59 OD 405 nm
Asp-Cys-Ala-Phe-His-Leu-Gly-Glu-Leu-Val-Trp-Cys-Thr (DCAFHLGELVWCT) [SEQ ID NO:3],0.510,0.660,0.810,0.859,,,,,
APPCAWHLGELVWCT [SEQ ID NO:13],0.562,0.658,0.530,1.148,,,,,
B1,,,,,0.709 OD 405 nm,0.768 OD 405 nm,0.956 OD 405 nm,0.567 OD 405 nm,
B2,,,,,0.53 OD 405 nm,0.562 OD 405 nm,0.658 OD 405 nm,1.15 OD 405 nm,
B3,,,,,0.81 OD 405 nm,0.51 OD 405 nm,0.66 OD 405 nm,0.859 OD 405 nm,
B4,,,,,0.88 OD 405 nm,0.38 OD 405 nm,0.605 OD 405 nm,0.983 OD 405 nm,
B5,,,,,0.67 OD 405 nm,0.496 OD 405 nm,0.509 OD 405 nm,0.389 OD 405 nm,OD 405 nm [7]: 0.277 OD 405 nm; OD 405 nm [8]: 0.226 OD 405 nm

# Reference: patent publication US20080187490A1, “Methods for Treating Amyotrophic Lateral Sclerosis” (priority 2005, published 2008)
